Structures can show the parent of a compound that is named as a salt.
Target: PDE4D7 (Homo sapiens (Human), UniProt Q08499)
Conditions: read-out: PDE4D7 IC50

PDE4D7, sequence (Q08499 other isoform, or with tags, fused parts or gaps): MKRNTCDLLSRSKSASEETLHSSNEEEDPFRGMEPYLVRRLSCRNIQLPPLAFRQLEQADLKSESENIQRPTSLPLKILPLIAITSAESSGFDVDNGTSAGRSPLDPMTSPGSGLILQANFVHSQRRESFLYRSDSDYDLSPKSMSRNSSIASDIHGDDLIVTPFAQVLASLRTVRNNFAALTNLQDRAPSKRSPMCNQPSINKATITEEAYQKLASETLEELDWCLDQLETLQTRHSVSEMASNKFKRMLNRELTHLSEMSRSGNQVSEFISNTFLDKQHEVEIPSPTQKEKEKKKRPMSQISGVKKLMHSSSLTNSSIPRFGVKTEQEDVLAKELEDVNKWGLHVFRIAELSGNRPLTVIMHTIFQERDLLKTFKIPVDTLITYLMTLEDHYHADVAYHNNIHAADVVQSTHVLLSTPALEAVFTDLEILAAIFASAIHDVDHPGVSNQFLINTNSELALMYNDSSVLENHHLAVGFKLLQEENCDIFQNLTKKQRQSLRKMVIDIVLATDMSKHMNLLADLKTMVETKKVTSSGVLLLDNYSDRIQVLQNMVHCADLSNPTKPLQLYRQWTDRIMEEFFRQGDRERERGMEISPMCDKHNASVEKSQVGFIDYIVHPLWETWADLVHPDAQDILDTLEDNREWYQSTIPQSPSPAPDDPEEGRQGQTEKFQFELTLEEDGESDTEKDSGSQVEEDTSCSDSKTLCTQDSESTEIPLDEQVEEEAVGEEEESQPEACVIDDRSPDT

| SMILES | IC50 [µM] |
| --- | --- |
| CCc1cc(Oc2ccc(CC(N)=O)cc2)nc(-c2cccc(Cl)c2)n1 [Example 181, 2-(4-((2-(3-Chlorophenyl)-6-ethylpyrimidin-4-yl)oxy)phenyl)acetamide] | > 1 |
| CCc1cc(Oc2ccc(CCO)cc2)nc(-c2cccc(Cl)c2)n1 [Example 182, 2-(4-((2-(3-Chlorophenyl)-6-ethylpyrimidin-4-yl)oxy)phenyl)ethanol] | < 1 |

Same assay, conditions: read-out: PDE4D7 IC50; PDE4D7 without asterisk

| SMILES | IC50 [µM] |
| --- | --- |
| OCCc1ccc(Nc2cc(-c3ccc(F)c(Cl)c3)nc3c2CCC3)cc1 [Example 151, 2-(4-((2-(3-Chloro-4-fluorophenyl)-6,7-dihydro-5H-cyclopenta[b]pyridin-4-yl)amino)phenyl)ethanol hydrochloride] | > 1 |
| NC(=O)Cc1ccc(Nc2cc(-c3cc(F)cc(Cl)c3)nc3c2CCC3)cc1 [Example 152, 2-(4-((2-(3-Chloro-5-fluorophenyl)-6,7-dihydro-5H-cyclopenta[b]pyridin-4-yl)amino)phenyl)acetamide hydrochloride] | > 1 |
| OCCc1ccc(Nc2cc(-c3cc(F)cc(Cl)c3)nc3c2CCC3)cc1 [Example 153, 2-(4-((2-(3-Chloro-5-fluorophenyl)-6,7-dihydro-5H-cyclopenta[b]pyridin-4-yl)amino)phenyl)ethanol hydrochloride] | > 1 |
| OCCc1ccc(Nc2cc(-c3ccc(Cl)c(Cl)c3)nc3c2CCC3)cc1 [Example 154, 2-(4-((2-(3,4-Dichlorophenyl)-6,7-dihydro-5H-cyclopenta[b]pyridin-4-yl)amino)phenyl)ethanol hydrochloride] | > 1 |
| NC(=O)Cc1ccc(Nc2cc(-c3cc(Cl)ccc3Cl)nc3c2CCC3)cc1 [Example 155, 2-(4-((2-(2,5-Dichlorophenyl)-6,7-dihydro-5H-cyclopenta[b]pyridin-4-yl)amino)phenyl)acetamide hydrochloride] | > 1 |
| OCCc1ccc(Nc2cc(-c3cc(Cl)ccc3Cl)nc3c2CCC3)cc1 [Example 156, 2-(4-((2-(2,5-Dichlorophenyl)-6,7-dihydro-5H-cyclopenta[b]pyridin-4-yl)amino)phenyl)ethanol hydrochloride] | > 1 |
| NC(=O)Cc1ccc(Nc2cc(-c3cc(Cl)cc(Cl)c3)nc3c2CCC3)cc1 [Example 157, 2-(4-((2-(3,5-Dichlorophenyl)-6,7-dihydro-5H-cyclopenta[b]pyridin-4-yl)amino)phenyl)acetamide hydrochloride] | > 1 |
| OCCc1ccc(Nc2cc(-c3cc(Cl)cc(Cl)c3)nc3c2CCC3)cc1 [Example 158, 2-(4-((2-(3,5-Dichlorophenyl)-6,7-dihydro-5H-cyclopenta[b]pyridin-4-yl)amino)phenyl)ethanol hydrochloride] | > 1 |
| Cc1cccc(-c2cc(Nc3ccc(CC(N)=O)cc3)c3c(n2)CCC3)c1 [Example 159, 2-(4-((2-(m-Tolyl)-6,7-dihydro-5H-cyclopenta[b]pyridin-4-yl)amino)phenyl)acetamide hydrochloride] | > 1 |
| Cc1cccc(-c2cc(Nc3ccc(CCO)cc3)c3c(n2)CCC3)c1 [Example 160, 2-(4-((2-(m-Tolyl)-6,7-dihydro-5H-cyclopenta[b]pyridin-4-yl)amino)phenyl)ethanol hydrochloride] | > 1 |
| O=C(O)Cc1ccc(Nc2cc(C3CCCC3)nc(C(F)(F)F)c2)cc1 [Example 161, 2-(4-((2-Cyclopentyl-6-(trifluoromethyl)pyridin-4-yl)amino)phenyl)acetic acid] | > 1 |
| OCCc1ccc(Nc2nc(-c3cccc(Cl)c3)nc3c2CCC3)cc1 [Example 162, 2-(4-((2-(3-Chlorophenyl)-6,7-dihydro-5H-cyclopenta[d]pyrimidin-4-yl)amino)phenyl)ethanol] | < 1 |
| OCCCc1ccc(Nc2nc(-c3cccc(Cl)c3)nc3c2CCC3)cc1 [Example 163, 3-(4-((2-(3-Chlorophenyl)-6,7-dihydro-5H-cyclopenta[d]pyrimidin-4-yl)amino)phenyl)propan-1-ol] | < 1 |
| CC(=O)Cc1ccc(Nc2nc(-c3cccc(Cl)c3)nc3c2CCC3)cc1 [Example 164, 1-(4-((2-(3-Chlorophenyl)-6,7-dihydro-5H-cyclopenta[d]pyrimidin-4-yl)amino)phenyl)propan-2-one] | > 1 |
| CC(O)Cc1ccc(Nc2nc(-c3cccc(Cl)c3)nc3c2CCC3)cc1 (stereo not drawn) [Example 165, 1-(4-((2-(3-Chlorophenyl)-6,7-dihydro-5H-cyclopenta[d]pyrimidin-4-yl)amino)phenyl)propan-2-ol] | > 1 |
| Clc1cccc(-c2nc3c(c(Nc4ccccc4)n2)CCC3)c1 [Example 166, 2-(3-Chlorophenyl)-N-phenyl-6,7-dihydro-5H-cyclopenta[d]pyrimidin-4-amine] | > 1 |
| CCc1cc(Nc2ccc(CC(N)=O)cc2)nc(-c2cccc(Cl)c2)n1 [Example 171, 2-(4-((2-(3-Chlorophenyl)-6-ethylpyrimidin-4-yl)amino)phenyl)acetamide] | < 1 |

Other lines, results leading:

| IC50 [µM] | SMILES |
| --- | --- |
| > 1 | NC(=O)CCc1ccc(Nc2nc(-c3cccc(Cl)c3)nc3c2CCC3)cc1 [Example 167, 3-(4-((2-(3-Chlorophenyl)-6,7-dihydro-5H-cyclopenta[d]pyrimidin-4-yl)amino)phenyl)propanamide] |
| > 1 | NC(=O)C(CO)Cc1ccc(Nc2nc(-c3cccc(Cl)c3)nc3c2CCC3)cc1 (stereo not drawn) [Example 168, 2-(4-((2-(3-Chlorophenyl)-6,7-dihydro-5H-cyclopenta[d]pyrimidin-4-yl)amino)benzyl)-3-hydroxypropanamide] |
| > 1 | CN(C)CCc1ccc(Nc2nc(-c3cccc(Cl)c3)nc3c2CCC3)cc1 [Example 169, 2-(3-Chlorophenyl)-N-(4-(2-(dimethylamino)ethyl)phenyl)-6,7-dihydro-5H-cyclopenta[d]pyrimidin-4-amine hydrochloride] |
| > 1 | CCc1cc(Nc2ccc(CCN(C)C)cc2)nc(-c2cccc(Cl)c2)n1 [Example 170, 2-(3-Chlorophenyl)-N-(4-(2-(dimethylamino)ethyl)phenyl)-6-ethylpyrimidin-4-amine hydrochloride] |
| > 1 | C[C@@H](O)Cc1ccc(Nc2nc(-c3cccc(Cl)c3)nc3c2CCC3)cc1 [Example 172, (R)-1-(4-((2-(3-Chlorophenyl)-6,7-dihydro-5H-cyclopenta[d]pyrimidin-4-yl)amino)phenyl)propan-2-ol] |
| > 1 | C[C@H](O)Cc1ccc(Nc2nc(-c3cccc(Cl)c3)nc3c2CCC3)cc1 [Example 173, (S)-1-(4-((2-(3-Chlorophenyl)-6,7-dihydro-5H-cyclopenta[d]pyrimidin-4-yl)amino)phenyl)propan-2-ol] |
| > 1 | C=Cc1ccc(Nc2nc(-c3cccc(Cl)c3)nc3c2CCC3)cc1 [Example 174, 2-(3-Chlorophenyl)-N-(4-vinylphenyl)-6,7-dihydro-5H-cyclopenta[d]pyrimidin-4-amine] |
| > 1 | OCC(O)c1ccc(Nc2nc(-c3cccc(Cl)c3)nc3c2CCC3)cc1 (stereo not drawn) [Example 175, 1-(4-((2-(3-Chlorophenyl)-6,7-dihydro-5H-cyclopenta[d]pyrimidin-4-yl)amino)phenyl)ethane-1,2-diol] |
| > 1 | OC(Cc1ccc(Nc2nc(-c3cccc(Cl)c3)nc3c2CCC3)cc1)C(F)(F)F (stereo not drawn) [Example 176, 3-(4-((2-(3-Chlorophenyl)-6,7-dihydro-5H-cyclopenta[d]pyrimidin-4-yl)amino)phenyl)-1,1,1-trifluoropropan-2-ol] |
| > 1 | Cc1cc(Nc2nc(-c3cccc(Cl)c3)nc3c2CCC3)ccc1CC#N [Example 177, 2-(4-((2-(3-Chlorophenyl)-6,7-dihydro-5H-cyclopenta[d]pyrimidin-4-yl)amino)-2-methylphenyl)acetonitrile] |
| > 1 | NC(=O)CCCNc1nc(-c2cccc(Cl)c2)nc2c1CCC2 [Example 178, 4-((2-(3-Chlorophenyl)-6,7-dihydro-5H-cyclopenta[d]pyrimidin-4-yl)amino)butanamide] |
| > 1 | Clc1cccc(-c2nc3c(c(Nc4ccc(Cc5ncco5)cc4)n2)CCC3)c1 [Example 179, 2-(3-Chlorophenyl)-N-(4-(oxazol-2-ylmethyl)phenyl)-6,7-dihydro-5H-cyclopenta[d]pyrimidin-4-amine] |
| > 1 | NS(=O)(=O)Cc1ccc(Nc2nc(-c3cccc(Cl)c3)nc3c2CCC3)cc1 [Example 180, (4-((2-(3-Chlorophenyl)-6,7-dihydro-5H-cyclopenta[d]pyrimidin-4-yl)amino)phenyl)methanesulfonamide] |
| > 1 | CCc1cc(Oc2ccc(CC(N)=O)cn2)nc(-c2cccc(Cl)c2)n1 [Example 183, 2-(6-((2-(3-Chlorophenyl)-6-ethylpyrimidin-4-yl)oxy)pyridin-3-yl)acetamide] |
| > 1 | CCc1cc(Nc2ccc(C(C)(C)CO)cc2)nc(-c2cccc(Cl)c2)n1 [Example 184, 2-(4-((2-(3-Chlorophenyl)-6-ethylpyrimidin-4-yl)amino)phenyl)-2-methylpropan-1-ol] |
| > 1 | CCOC(=O)Cc1ccc(Nc2cc(CC)nc(-c3cccc(Cl)c3)n2)cc1 [Example 185, Ethyl 2-(4-((2-(3-chlorophenyl)-6-ethylpyrimidin-4-yl)amino)phenyl)acetate] |
| > 1 | CCc1cc(Nc2ccc(C(CO)C(F)(F)F)cc2)nc(-c2cccc(Cl)c2)n1 (stereo not drawn) [Example 186, 2-(4-((2-(3-Chlorophenyl)-6-ethylpyrimidin-4-yl)amino)phenyl)-3,3,3-trifluoropropan-1-ol] |
| > 1 | CCc1cc(Nc2ccc(C(C)(C)C(N)=O)cc2)nc(-c2cccc(Cl)c2)n1 [Example 187, 2-(4-((2-(3-Chlorophenyl)-6-ethylpyrimidin-4-yl)amino)phenyl)-2-methylpropanamide] |
| > 1 | CCc1cc(Nc2ccc(Cn3cc(Cl)cn3)cc2)nc(-c2cccc(Cl)c2)n1 [Example 188, N-(4-((4-Chloro-1H-pyrazol-1-yl)methyl)phenyl)-2-(3-chlorophenyl)-6-ethylpyrimidin-4-amine] |
| < 1 | CCc1cc(Nc2ccc(Cn3cccn3)cc2)nc(-c2cccc(Cl)c2)n1 [Example 189, N-(4-((1H-Pyrazol-1-yl)methyl)phenyl)-2-(3-chlorophenyl)-6-ethylpyrimidin-4-amine] |
